As usually defined, the Ki is the dissociation constant of the complex between target and ligand, obtained from inhibition or displacement. Higher therefore signals lower affinity.

This experiment has as its target T1, MR (Homo sapiens, UniProt P08235).
T1 sequence (P08235 1-984): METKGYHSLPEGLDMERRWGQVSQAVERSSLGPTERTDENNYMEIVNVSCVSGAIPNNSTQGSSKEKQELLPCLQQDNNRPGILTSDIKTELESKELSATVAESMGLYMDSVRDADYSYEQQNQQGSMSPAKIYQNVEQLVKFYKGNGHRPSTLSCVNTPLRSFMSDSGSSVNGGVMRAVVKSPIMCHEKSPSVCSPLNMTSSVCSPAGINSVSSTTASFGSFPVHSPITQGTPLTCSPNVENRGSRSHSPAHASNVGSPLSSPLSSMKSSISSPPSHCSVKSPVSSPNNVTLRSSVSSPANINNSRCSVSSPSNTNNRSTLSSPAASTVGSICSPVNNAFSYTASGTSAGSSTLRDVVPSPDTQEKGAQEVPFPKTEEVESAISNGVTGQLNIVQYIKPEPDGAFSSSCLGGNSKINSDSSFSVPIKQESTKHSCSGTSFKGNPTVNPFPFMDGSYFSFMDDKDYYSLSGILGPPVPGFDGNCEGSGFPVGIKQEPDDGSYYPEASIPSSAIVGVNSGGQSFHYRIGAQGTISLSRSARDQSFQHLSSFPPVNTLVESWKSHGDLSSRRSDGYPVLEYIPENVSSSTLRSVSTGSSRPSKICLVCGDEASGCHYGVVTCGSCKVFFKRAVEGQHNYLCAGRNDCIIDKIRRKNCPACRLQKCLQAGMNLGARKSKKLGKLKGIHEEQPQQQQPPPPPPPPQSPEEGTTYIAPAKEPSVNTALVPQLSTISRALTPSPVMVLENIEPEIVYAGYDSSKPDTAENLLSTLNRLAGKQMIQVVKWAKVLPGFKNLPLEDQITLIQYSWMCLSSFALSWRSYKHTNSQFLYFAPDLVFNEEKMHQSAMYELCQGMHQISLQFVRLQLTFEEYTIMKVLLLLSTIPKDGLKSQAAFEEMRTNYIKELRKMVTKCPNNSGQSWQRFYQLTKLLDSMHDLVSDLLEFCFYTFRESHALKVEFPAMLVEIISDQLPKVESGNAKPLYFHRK
Nature of the experiment: Mineralocorticoid Receptor Binding Assay (Method 1), [3H]-aldosterone competition. Details: The full length human MR gene is cloned from a human kidney or human brain cDNA library; made in house; host or cells: SF9 insect cells (pAcHLT baculovirus transfer vector). The note with it: human MR expressed in Sf9 cells, 0.5 nM [3H]-aldosterone. The protocol: Mineralocorticoid Receptor Binding Assay (Method 1):
The full length human MR gene is cloned from a human kidney or human brain cDNA library. Briefly, using synthetic oligonucleotide primers (Eli Lilly and Company, Indianapolis) directed to nucleotides 20-54 and 3700-3666 of the human MR, polymerase chain reaction (PCR) is performed under standard conditions using a human cDNA library. The PCR reaction is performed in a final volume of 50 μl containing about 1μl of a 50× stock solution of polymerase; about 1 μl of a 50× stock solution of dNTP; about 5μl of an appropriate PCR buffer; about 1 μl of each primer; about 5 μl of a H. kidney or H. brain cDNA library; and about 36 μl of water. The reaction is allowed to denature for about 30 seconds at 95 degrees Celsius, anneal for about 30 seconds at 55 degrees Celsius, and extend for about 5 minutes at 72 degrees Celsius, the sequence being repeated for a total of about 35 cycles. The desired PCR product (3.68 Kb) is confirmed by gel electrophoresis and subsequently cut from the gel and stored at about −20 degrees Celsius until extraction. To extract the cDNA product from the agarose gel, the QIAEX II Gel Extraction protocol (QIAGEN, Inc.) is employed according to the manufacturer's instructions. Following extraction, the MR cDNA is cloned into an appropriate cloning vector (Zero Blunt TOPO PCR Cloning Kit (Invitrogen, Inc.) and a pAcHLT-baculovirus transfer vector (B.D./Pharminogen), then expressed in SF9 insect cells, essentially according to manufacturer's instructions. Sf9 cells are grown at a scale where gram quantity cell pellets are obtained for subsequent use in the MR binding assay. Harvested cell pellets are lysed by repeated freeze-thaw cycles (about 4) in a suitable lysis buffer then centrifuged at about 1×10^3G (with the supernatant being saved for future assays).
MR binding assays are performed in a final total volume of about 250 μl containing about 20-25 μg of protein and 0.5 nM of [^3H]-aldosterone plus varying concentrations of test compound or vehicle. The assay binding buffer consists of 30 mM sodium molybdate, 30 mM of TRIS-HCl, 5 mM sodium phosphate, 5 mM sodium pyrophosphate, and about 10% glycerol, pH=7.5.
Briefly, assays are prepared at RT in 96-well Falcon 3072 plates, each well containing 210 μof binding buffer, 10 μl of […], 10 μl of test compound/vehicle, and 20 μl of the resuspended receptor protein extract. Incubations are carried out at 4 degrees Celsius with shaking for about 16 hours. 200 μl aliquots of each incubation are filtered onto Millipore HA 0.45 micron 96-well filter plates, pre-moistened with cold 30 mM TRIS-HCl. The filter plates are suctioned dry with vacuum and immediately washed 3× with cold 30 mM TRIS-HCl. The plates are then punched out and the amount of receptor-ligand complex is determined by liquid scintillation counting using 4 ml of Ready Protein Plus™ liquid scintillation cocktail.

Where only a bound is given, the exact number is not on record here.

Regarding `CC(=C1c2ccccc2Sc2ccccc21)c1cccc(NS(C)(=O)=O)c1` [Example 4, 9-[1-(3-methylsulfonoylaminophenyl)ethylene] thioxanthine], the inhibition constant Ki was < 500 nM.
For the molecule `O=c1[nH]c2ccc(C=C3c4ccc(F)cc4Sc4cc(F)ccc43)cc2[nH]1` [Example 5, 5-(3,6-Difluoro-thioxanthen-9-ylidenemethyl)-1,3-dihydro-benzoimidazol-2-one], the Ki was < 500 nM.
Regarding `CC(=C1c2ccccc2Sc2ccccc21)c1cccc(N)c1` [Example 6], the Ki is < 500 nM.
The same measure for `CS(=O)(=O)Nc1cccc(C=C2c3ccccc3Sc3ccccc32)c1` [Example 8]: < 500 nM; for `Nc1cccc(C=C2c3ccccc3Sc3ccccc32)c1` [Example 9]: < 500 nM; for `O=c1[nH]c2ccc(C=C3c4ccccc4Sc4ccccc43)cc2[nH]1` [Example 10]: < 500 nM.
Regarding `O=c1[nH]c2cc(C=C3c4ccccc4Sc4ccccc43)ccc2o1` [Example 11], the Ki was < 500 nM.
With `O=c1[nH]c2cc(C=C3c4ccccc4Sc4ccccc43)ccc2s1` [Example 12], the inhibition constant Ki was < 500 nM.
The same measure for `O=c1[nH]c2cc(C=C3c4ccccc4Sc4ccccc43)ccc2n1CCN1CCOCC1` [Example 13]: < 500 nM; for `CN1CCN(CCn2c(=O)[nH]c3cc(C=C4c5ccccc5Sc5ccccc54)ccc32)CC1` [Example 14]: < 500 nM.
The same measure for `Oc1ccccc1C=C1c2ccccc2Sc2ccccc21` [Example 15]: < 500 nM.

These data come from patent publication US7482344B2, “Tricyclic steroid hormone nuclear receptor modulators” (Eli Lilly and Company, priority 2003, dated 2009).
